We go through 25 molecules from PubChem BioAssay (NCI).

Test systems include CAKI-1 renal; IGROV1 ovarian; NCI-H226 lung; NCI-H23 lung; OVCAR-8 ovarian; SK-MEL-5 melanoma; SK-OV-3 ovarian; SR leukemia; NCI/ADR-RES ovarian.
Experiment in all cases: DTP human tumour cell line panel, 48 h

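Step 1: Grow cells in 96-well plates. Step 2: Expose to compound for 48 hours at 5 concentrations. Step 3: Interpolate endpoints linearly; if unreached, use highest concentration. GI50 is the concentration that inhibits growth by half. At the TGI there is no net growth.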 A value given as a limit tells only on which side of the number the result lay.

In general, TGI refers to the concentration giving total growth inhibition. The low end stands for greater sensitivity of the cells, the high end for lower sensitivity of the cells. For the molecule `Cc1ccc(N2C(=O)N(c3ccc(C)cc3)C3(SC=NN3C)C2=O)cc1` (configuration not stated), the TGI with CAKI-1 renal, in the test on IGROV1 ovarian, in the test on NCI-H226 lung, with NCI-H23 lung, with OVCAR-8 ovarian and in the test on SK-MEL-5 melanoma was > 100 µM throughout. The concentration for total growth inhibition (TGI) in the test on SK-OV-3 ovarian and with SR leukemia was > 100 µM in each case.
`N#Cc1c(-c2ccco2)cc(-c2ccc(N)cc2)[nH]c1=O`: the concentration for total growth inhibition (TGI) in the test with IGROV1 ovarian, with NCI-H226 lung, with NCI-H23 lung, in the test with OVCAR-8 ovarian, in the test on SK-MEL-5 melanoma and in the test on SK-OV-3 ovarian was > 100 µM in each case. For the same molecule, in the test on SR leukemia, the concentration for total growth inhibition (TGI) was > 100 µM.
What is called GI50 is the concentration giving 50% growth inhibition. Consider `COc1ccc(-c2cc(-c3ccc(Nc4ccnc5cc(Cl)ccc45)cc3)nc(N3CCOCC3)n2)cc1`, for which the GI50 is > 100 µM in the test with NCI-H226 lung; 4.99 µM in the test with NCI-H23 lung; 3.01 µM in the test on NCI/ADR-RES ovarian; 4.43 µM with OVCAR-8 ovarian; 34.8 µM in the test on SK-OV-3 ovarian. Besides, the concentration for total growth inhibition (TGI) in the test with NCI-H226 lung, with NCI-H23 lung, in the test with NCI/ADR-RES ovarian, with OVCAR-8 ovarian and with SK-OV-3 ovarian was > 100 µM each time.
As to `NCCN.O=C([O-])[O-].O=C([O-])[O-].[Co+3].[K+]`, the GI50 with IGROV1 ovarian, in the test with NCI-H23 lung, in the test on OVCAR-8 ovarian, with SK-MEL-5 melanoma and in the test on SK-OV-3 ovarian was > 100 µM each time. Besides, the TGI in the test on IGROV1 ovarian, with NCI-H23 lung, in the test with OVCAR-8 ovarian, in the test on SK-MEL-5 melanoma and in the test on SK-OV-3 ovarian was > 100 µM each time.
In the case of `O=C1CC2CCN(C(=O)c3ccccc3)CC2CCN1` (configuration not stated), the total growth inhibition concentration (TGI) with IGROV1 ovarian, in the test on NCI-H226 lung, with NCI-H23 lung, in the test with OVCAR-8 ovarian, with SK-MEL-5 melanoma and in the test on SK-OV-3 ovarian was > 100 µM throughout. Also, the TGI with SR leukemia is > 100 µM.
In the case of `NC(CCc1ncc(C(=O)O)s1)C(=O)O` (configuration not stated), the TGI with CAKI-1 renal, in the test with IGROV1 ovarian, in the test with NCI-H226 lung, in the test with NCI-H23 lung, in the test on OVCAR-8 ovarian and with SK-MEL-5 melanoma was > 100 µM throughout. Further, the concentration for total growth inhibition (TGI) in the test with SK-OV-3 ovarian was > 100 µM.
For the molecule `COC(=O)c1c[nH]cc1CCCCc1c[nH]cc1C(=O)OC`, the TGI in the test on CAKI-1 renal, in the test with IGROV1 ovarian, in the test with NCI-H226 lung, in the test on NCI-H23 lung, in the test with OVCAR-8 ovarian and with SK-OV-3 ovarian was > 100 µM each time. The TGI in the test with SR leukemia was > 100 µM.
On to `CC1COS(=O)O1` (configuration not stated), for which the concentration for total growth inhibition (TGI) in the test with CAKI-1 renal, in the test with IGROV1 ovarian, in the test with NCI-H226 lung, with NCI-H23 lung, in the test with OVCAR-8 ovarian and in the test on SK-MEL-5 melanoma was > 100 µM in each case. Besides, the TGI in the test with SK-OV-3 ovarian and in the test with SR leukemia was > 100 µM in each case.
As for `O=C1c2ccc3c4ccccc4n(-c4ccccc4)c3c2C(=O)N1c1ccc(Cl)cc1`, the TGI was > 100 µM with CAKI-1 renal; > 100 µM in the test with IGROV1 ovarian; > 100 µM in the test with NCI-H226 lung; 24.4 µM in the test with NCI-H23 lung; > 100 µM in the test on OVCAR-8 ovarian; > 100 µM in the test with SK-MEL-5 melanoma. The TGI with SK-OV-3 ovarian and with SR leukemia was > 100 µM each time.
For the molecule `CC(C)(C)OC(=O)N1C2CCCC23O[C@@H]1c1cc2c(cc1C3=O)OCO2` (some centres not stated), the total growth inhibition concentration (TGI) in the test with CAKI-1 renal was 87.1 µM; in the test with IGROV1 ovarian, > 100 µM; in the test on NCI-H226 lung, > 100 µM; in the test on NCI-H23 lung, > 100 µM; in the test with OVCAR-8 ovarian it was > 100 µM; in the test on SK-MEL-5 melanoma it was 26.1 µM. Besides, the TGI in the test on SK-OV-3 ovarian was 94 µM; in the test on SR leukemia it was > 100 µM.
As to `COc1cc2c(cc1OC)C1Cc3cc(OC)c(OC)cc3N1CC2` (configuration not stated), the TGI with CAKI-1 renal is 88.5 µM; in the test with IGROV1 ovarian, > 100 µM; with NCI-H226 lung, 47.9 µM; with NCI-H23 lung, > 100 µM; with OVCAR-8 ovarian, > 100 µM; in the test with SK-OV-3 ovarian, > 100 µM. The concentration for total growth inhibition (TGI) in the test on SR leukemia is > 100 µM.
For the molecule `Nc1ccc(C2=N/C(=C\c3cccc(N)c3)C(=O)O2)cc1`, the concentration for total growth inhibition (TGI) with CAKI-1 renal, in the test on IGROV1 ovarian, in the test on NCI-H23 lung, in the test with OVCAR-8 ovarian, in the test on SK-MEL-5 melanoma and in the test with SK-OV-3 ovarian was > 100 µM throughout. In the test on SR leukemia, the total growth inhibition concentration (TGI) was > 100 µM.
As to `Cc1ccc(C)c(N2C(=O)C(=O)C(c3nc4ccccc4o3)/C(=N\NC(=O)c3ccccc3O)C2=O)c1` (configuration not stated), the TGI in the test with CAKI-1 renal is 18.5 µM; in the test with IGROV1 ovarian, > 100 µM; with NCI-H226 lung, 88.6 µM; in the test with NCI-H23 lung, 28.7 µM; in the test with OVCAR-8 ovarian, 76.7 µM; in the test with SK-MEL-5 melanoma, > 100 µM. The values for the TGI in the test on SK-OV-3 ovarian and with SR leukemia were > 100 µM and 76.2 µM, respectively.
Consider `COc1cc(/C=N\O[Si](C)(C)C(C)(C)C)ccc1O[Si](C)(C)C(C)(C)C`, for which the concentration for total growth inhibition (TGI) with CAKI-1 renal, with IGROV1 ovarian, in the test with OVCAR-8 ovarian, in the test with SK-MEL-5 melanoma and in the test with SK-OV-3 ovarian was > 100 µM throughout.
Take `Cc1ccc2[c](c1)[Sn]([c]1ccccc1)([c]1ccccc1)[c]1cc(C)ccc1N2C`: the GI50 with IGROV1 ovarian is 58.7 µM; in the test on NCI-H226 lung, 49 µM; in the test on NCI-H23 lung, 41 µM; in the test with OVCAR-8 ovarian it was 57.3 µM; with SK-MEL-5 melanoma, 33.2 µM; in the test with SK-OV-3 ovarian it was > 100 µM. Also, the 50% growth inhibitory concentration (GI50) in the test on SR leukemia is 0.116 µM. The total growth inhibition concentration (TGI) in the test on IGROV1 ovarian, in the test with NCI-H226 lung, in the test with NCI-H23 lung, in the test on OVCAR-8 ovarian, with SK-MEL-5 melanoma and in the test with SK-OV-3 ovarian was > 100 µM in each case.
Turning to `CCOC(=O)C(C)(c1c(C)[nH]c2ccccc12)c1c(C)[nH]c2ccccc12`, the TGI was 45.4 µM in the test on CAKI-1 renal; 51.3 µM with IGROV1 ovarian; 32.9 µM with NCI-H226 lung; 37.5 µM with NCI-H23 lung; 81.7 µM with OVCAR-8 ovarian; 31.1 µM in the test on SK-MEL-5 melanoma. The molecule further came in with a TGI with SK-OV-3 ovarian of 52.9 µM.
Regarding `Cc1ccc(C)c(N2C(=O)C(=O)C(c3nc4ccccc4o3)/C(=N/N)C2=O)c1` (configuration not stated), the concentration for total growth inhibition (TGI) in the test on CAKI-1 renal, with IGROV1 ovarian, in the test with NCI-H226 lung, with NCI-H23 lung, in the test on OVCAR-8 ovarian and with SK-MEL-5 melanoma was > 100 µM in each case. Further, the concentration for total growth inhibition (TGI) in the test with SK-OV-3 ovarian and with SR leukemia was > 100 µM in each case.
Turning to `C=CCC1(C)CCCCC1(O)CS(=O)c1ccccc1` (configuration not stated), the TGI with CAKI-1 renal, in the test with IGROV1 ovarian, with NCI-H226 lung, in the test on OVCAR-8 ovarian, in the test on SK-MEL-5 melanoma and in the test with SK-OV-3 ovarian was > 100 µM throughout. Also, the TGI in the test with SR leukemia is > 100 µM.
With `Cc1c(Cl)cccc1NC(=O)c1cccc([N+](=O)[O-])c1O`, the TGI was > 64.1 µM in the test with CAKI-1 renal; > 83.2 µM in the test with IGROV1 ovarian; 56.3 µM in the test on NCI-H226 lung; 29.4 µM with NCI-H23 lung; > 100 µM in the test with OVCAR-8 ovarian; 15.5 µM with SK-MEL-5 melanoma. The results for the total growth inhibition concentration (TGI) with SK-OV-3 ovarian and in the test with SR leukemia were > 80.2 µM and 74.8 µM, respectively.
Take `C[Si](C)(C)CN1C(=O)c2ccccc2C1(O)c1ccccc1` (configuration not stated): the concentration for total growth inhibition (TGI) with CAKI-1 renal is > 91.6 µM; in the test on IGROV1 ovarian, > 100 µM; in the test on NCI-H226 lung, > 100 µM; in the test on NCI-H23 lung, > 100 µM; with OVCAR-8 ovarian, > 100 µM; with SK-MEL-5 melanoma, > 100 µM. Moreover, the TGI with SR leukemia was > 100 µM.
Turning to `CC12CCC(=O)N1c1cccnc1N2` (configuration not stated), the concentration for total growth inhibition (TGI) in the test on CAKI-1 renal, in the test with IGROV1 ovarian, in the test on NCI-H226 lung, with NCI-H23 lung, in the test with OVCAR-8 ovarian and with SK-MEL-5 melanoma was > 100 µM in each case. For the same molecule, in the test on SK-OV-3 ovarian, the TGI is > 100 µM.
Regarding `C[P+](C)(C)c1ccccc1`, the concentration for total growth inhibition (TGI) with CAKI-1 renal, in the test with IGROV1 ovarian, in the test with NCI-H226 lung, in the test on NCI-H23 lung, in the test on OVCAR-8 ovarian and with SK-MEL-5 melanoma was > 100 µM in each case. The concentration for total growth inhibition (TGI) in the test on SK-OV-3 ovarian and in the test on SR leukemia was > 100 µM in each case.
Turning to `NC(=S)N/N=C1\CCCC\C1=C/c1ccccc1`, the total growth inhibition concentration (TGI) in the test with IGROV1 ovarian is 71.5 µM; with NCI-H23 lung it was > 100 µM; in the test on OVCAR-8 ovarian, > 100 µM; with SK-OV-3 ovarian, > 100 µM.
Regarding `O=C1C2[C@@H](C(=O)N1c1ccc(Br)cc1)C13C(=CC2([N+](=O)[O-])[C@@H]2C(=O)N(c4ccc(Br)cc4)C(=O)[C@@H]21)c1ccccc1N3c1ccccc1` (some centres not stated), the TGI in the test with NCI-H226 lung, with NCI-H23 lung, with OVCAR-8 ovarian and with SR leukemia was > 100 µM in each case.
For the molecule `CCOc1ccc(N=Cc2c3ccccc3nc3ccccc23)cc1`, the TGI in the test with CAKI-1 renal, with IGROV1 ovarian, in the test on NCI-H226 lung, with NCI-H23 lung, in the test on OVCAR-8 ovarian and with SK-MEL-5 melanoma was > 100 µM each time. Besides, the concentration for total growth inhibition (TGI) in the test with SK-OV-3 ovarian is > 100 µM.
